Laboratory results from paper PMC5399447, “Neuroprotective pentapeptide CN-105 is associated with reduced sterile inflammation and improved functional outcomes in a traumatic brain injury murine model” (Scientific Reports, 2017).

What was measured:
[1] = system: murine model of intracranial hemorrhage; settings: cited from earlier work
Excerpt: The possibility that the apoE mimetic peptide modifies sterile inflammation in the central nervous system is particularly relevant after traumatic brain injury, where glial activation and neuroinflammatory responses exacerbate secondary tissue injury. […] For example, there are a number of limitations inherent to all rodent models of traumatic brain injury. This includes the lissencephalic nature of rodent brains, which precludes testing of higher and more subtle cortical functions that are directly applicable to the clinical setting. Moreoever, rodent brains have reduced ratio of white: grey matter as compared to primates, and thus are not ideal to model the diffuse axonal injury that may occur in the clinical s ...

[2] = system: microglia in hippocampus of TBI injured mice; assay: F4/80 immunostained microglia, unbiased stereology; assay type: in vivo, mouse; settings: 0.05 mg/kg, 10 days post TBI
Experimental: (§1) To assess the effects of CN-105 on inflammation, neuronal injury and neuronal loss, immunohistochemical(IHC) staining was performed using the F4/80 antibody(a marker for mature microglia and macrophages; rat monoclonal, 1:10,000; Serotec, Raleigh, NC) and the Fluoro-Jade B stain(a marker of degenerating neurons; Histo-Chem Inc. Jefferson, AR) on days 10 and 1, respectively, after TBI. IHC was performed on separate cohorts of mice from those used in neurobehavioral tests. As previously described, mice were anesthetized, euthanized, and perfused with 30 ml phosphate-buffered saline(PBS) via transcardiac puncture. The brains were then immersed in buffered formalin overnight and saturated with 30% sucrose in buffer. Sagittal sections(40 μm) were sliced on a freezing microtome and collected in cryoprotectant solution. […]
Prior to quantification, all slides were coded and the analyst was blinded to avoid experimenter bias. For the F4/80 quantification the brains of 5 TBI treated and 6 TBI vehicle treated mice(4–6 sections/mouse) were counted. Every eighth section of the dorsal hippocampus, according to the Paxinos and Franklin(2001) mouse brain atlas, was analyzed using the Stereo Investigator 7.0 software(MicroBrightField, Williston, VT). […] An average of 12 counting frames was analyzed per section, the grid size was 450 × 450 μm, and the dissector dimensions were 80 × 80 × 10 μm. […]

[3] = system: TBI mice; assay: Tolerability after injury; assay type: in vivo, mouse; settings: treatment after injury
Experimental: (§2) CN-105(Ac-VSRRR-amide) was synthesized by Polypeptide Inc.(San Diego, CA) to a purity of >99%, and was delivered in sterile normal saline. Animals were placed in a restrainer(Harvard Apparatus, Holliston, MA), and a single intravenous dose of drug(0.05 mg/kg) was administered by tail vein in a volume of 100 μL. Vehicle treated animals received intravenous injection of 100 μL of normal saline at the same time points. Animals were assigned to treatment group by a coded study identification number after injury using a paper randomization protocol. A block randomization scheme was used, so that an equal number of animals were randomized to each of the treatment groups during concurrent experiments.

[4] = system: degenerating neurons in dentate gyrus of TBI mice; assay: Fluoro-Jade B staining of degenerating neurons; assay type: in vivo, mouse; settings: 0.05 mg/kg, 24 hours post-injury, 6 vehicle and 6 CN-105 mice, p < 0.00001
Experimental: as §1
For Fluoro-Jade B, brain sections from 12 TBI mice(6 vehicle and 6 CN-105) containing the dorsal hippocampus(5–6 sections per animal) were examined for degenerating neurons using an epifluorescence microscope(Nikon, Tokyo, Japan) with a medium band blue excitation(Nikon B-2A, 450–490 nm) filter set. […] Degenerating neurons were counted and the total number of Fluoro-Jade B-positive neurons per every eighth brain slice was recorded. […]

[5] = system: murine closed head injury model (TBI); assay: Morris Water Maze after closed head injury; assay type: in vivo, mouse
Excerpt: The murine closed head injury model used in this study was previously described. The closed head impact results in injury to selectively vulnerable neurons in cortex and hippocampus, and is associated with vestibulomotor deficits and long term neurocognitive deficits. Although animals do lose body weight, they rapidly regain spontaneous ventilation, righting reflex, and the ability to ambulate. Briefly, 12–14 week-old C57Bl/6 J male mice(Jackson Laboratories, Bar Harbor, ME) were used. The trachea was intubated after anesthesia induction with 4.6% isoflurane and the lungs were mechanically ventilated with 1.6% isoflurane in 30% O2/70% N2. Core body temperature was maintained at 37 °C through a rectal probe. To avoid basilar skull fracture, ear bars are not used. The animal was secured in a stereotactic device in a prone position on a molded acrylic cast with surgical tape across the shoulders. The intubation tube was also secured to the acrylic cast with tape. The acrylic cast is designed to allow the mouse to have 3 mm of space below the head to allow for acceleration/decelaration of the head in this position. The head was shaved and the scalp was incised to expose the skull and identify anatomical landmarks. A concave 3-mm metallic disc was adhered to the skull immediately caudal to bregma. A 2.0-mm diameter pneumatic impactor(Air-Power Inc., High Point, NC) was used to deliver a single midline impact to the center of the disc surface. The impactor was discharged at 6.8 ± 0.2 m/second with a head displacement of 3 mm. After impact, the animals were allowed to recover spontaneous ventilation and then the tracheas were extubated. Mice were allowed free access to food and water. Sham mice were treated identically except for the absence of impact. All mice were housed in the same facility.
as §2
As described previously the Morris Water Maze assesses spatial learning and memory by testing the ability of mice to locate a submerged platform. The mice were placed in a pool(105 cm diameter) filled with room temperature(25 °C) water made opaque with fat free powdered milk and allowed up to 90 seconds to locate the submerged platform. The mice performed four trials/day for 4 consecutive days(inter-trial interval = 30 min). The mice were introduced in varying quadrants of the pool for each trial but the location of the platform never varied. The latency to locate the platform was recorded, and the 4 trials per day were averaged. Mice were tested on days 28–31 post-injury(n = 11–12 mice per group). A probe trial was administered on day 4 of the experiment 3 hours after the last test trial was completed. For the probe trial, the platform was removed and the mice were allowed to swim freely for 60 seconds. The percent of the time the mice spent in the platform quadrant was quantified.

Ac-VSRRR-amide [CN-105]
functional outcome ([1]; model of intracranial hemorrhage): improves functional outcome
cerebral edema ([1]; murine model of intracranial hemorrhage): reduces cerebral edema
density of F4/80 microglia in dorsal hippocampus compared to vehicle ([2]; 5 treated and 6 vehicle mice, p = 0.0002): significant decrease in density of microglia
microglia morphology ([2]; hippocampus): almost exclusively small ramified microglia
tolerability [3]: well tolerated
number of Fluoro-Jade B positive neurons, dorsal hippocampus, compared to vehicle [4]: significant decrease in the number of Fluoro-Jade B positive neurons
Morris Water Maze latency to platform compared to vehicle ([5]; 0.05 mg/kg iv 2 h after TBI, days 28-31, p = 0.036): significantly reduced time to escape to the platform
Morris Water Maze probe trial compared to vehicle ([5]; 0.05 mg/kg iv 2 h after TBI, p = 0.0079): performed better on the probe trial
Morris Water Maze swim speed compared to vehicle ([5]; 0.05 mg/kg iv 2 h after TBI, p = 0.4968): no difference in swim speed
Morris Water Maze neurocognitive performance compared to vehicle ([5]; 0.05 mg/kg iv 4 hours post-injury): reduced deficit on Morris Water Maze testing
Morris Water Maze probe trial compared to vehicle ([5]; 0.05 mg/kg iv 4 hours post-injury, p = 0.0211): performed better on the probe trial
Morris Water Maze swim speed compared to vehicle ([5]; 0.05 mg/kg iv 4 hours post-injury, p = 0.0567): no significant difference in swim speed
